Measured values reported in BindingDB's records for doi:10.1016/s0960-894x(98)00444-2 (Wayne State University, 1999).

Molecular target: Prothrombin (Homo sapiens, UniProt P00734)
Assay: ChEBML_216950
Description: Dissociation constant was evaluated by competitive inhibition of alpha-thrombin using the method of Dixon enzyme assay.

- Ki: 170 µM
SMILES: C1=[N+]2c3ccccc3C=[N+]3c4ccccc4C=[N+]4c5ccccc5C[N](c5ccccc51)[Pd]234 (stereo unspecified) [Palladium analogue]
